Results as given in patent publication US20100075907A1, “NEUROMEDIN U RECEPTOR AGONISTS AND USES THEREOF” (priority 2006, published 2010).
Starred links: 1 amine or outer side, 2 acyl side, 3 side chain; linkers in the order of their positions; H or OH if unused. Non-standard residues stand in square brackets, D forms with d. Residues, ends and D or L forms follow the SMILES beside them. *: point of attachment. X2 = CCN1C(=O)CC(SC[C@H](NC(C)=O)C(=O)NCCCOCCOCCOCCCN*)C1=O; Succinimide(1-Et,3-yl) = CCN1C(=O)CC(*)C1=O; Suc = O=C(CCC(=O)[*:2])[*:1]

Experiments:
Type in all cases: cell-based
[1] = target: T1, Mouse NMUR1-CTG (Mus musculus, UniProt O55040); test: FLIPR calcium mobilization assay, mouse NMUR1-CTG; design: expressed in transfected cells; host or cells: FLP-In CHO or HEK-293 FLP-In cells (pcDNA5); conditions: for EC50: FLIPR
T1 sequence (O55040 1-428): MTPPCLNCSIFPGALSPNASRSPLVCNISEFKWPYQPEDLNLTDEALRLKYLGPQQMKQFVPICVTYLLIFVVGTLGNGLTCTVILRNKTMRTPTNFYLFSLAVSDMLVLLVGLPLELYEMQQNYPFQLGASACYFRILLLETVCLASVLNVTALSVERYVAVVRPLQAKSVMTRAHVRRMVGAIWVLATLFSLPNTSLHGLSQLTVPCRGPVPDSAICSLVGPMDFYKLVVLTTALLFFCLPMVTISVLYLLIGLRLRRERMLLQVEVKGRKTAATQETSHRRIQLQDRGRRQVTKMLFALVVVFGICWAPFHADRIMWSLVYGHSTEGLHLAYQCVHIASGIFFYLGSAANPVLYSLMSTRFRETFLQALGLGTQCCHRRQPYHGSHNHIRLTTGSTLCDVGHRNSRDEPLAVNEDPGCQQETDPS
Description: (§1) Human, mouse or rat cDNAs encoding NMUR1 or NMUR2 (as described in Howard et al. Nature 406: 70-74 (2000) were subcloned in pcDNA5 (Invitrogen) and transfected into FLP-In CHO cells and HEK-293 FLP-In cells purchased from Invitrogen (Carlsbad, Calif.) using lipofectamine (Invitrogen). The Flp-In system allows integration and expression of a particular gene of interest at a specific genomic location utilizing the Flp recombinase from yeast. The transfected cells were selected by growth in medium containing 200 μg/mL hygromycin (Invitrogen). Populations were frozen at early passage numbers, and these stocks were used for further studies. Stable clones that expressed the mRNAs were identified functionally by FLIPR as well as by RT-PCR. […] Two different rodent NMUR1 cell lines were thus generated: one with the codon as predicted from the genomic databases and another cell line with an engineered methionine (ATG) as the start codon. Additionally, stable cell lines expressing the human receptors were generated in HEK-293/aeq17 cells which stably express the aequorin gene under the CMV promoter. The human NMUR2 cDNA was cloned into pcDNA3.1 and human NMUR1 was subcloned into pIRES-puro (Clontech, Mountain View, Calif.), after transfection cells were selected in media containing G418 and either hygromycin (NMUR2) or puromycin (NMUR1).
(§2) The NMU receptors signal primarily through Gαq/11 proteins; therefore calcium mobilization assays can be utilized for functional activity.
(§3) Stable cell lines expressing human and or rodent NMUR1 or human NMUR2 receptors were plated at a density of 12,000 cells per well overnight on poly-lysine coated 384-well black-walled plates. The following day, the media was removed from the plates and the cells were subsequently loaded with Fluo-3 (Molecular Probes), a calcium sensitive dye, diluted in FLIPR buffer (1× Hank's buffered saline containing 20 mM HEPES, 0.1% BSA, 2.5 mM probenecid (Sigma) and 1.6 mM TR40). All reagents are from Invitrogen unless otherwise noted. Peptide stocks were resuspended in DMSO at a stock concentration of 2 mM and diluted in FLIPR buffer on the day of the experiment to a 4 μM working stock solution.
(§4) After a 90 minute incubation at room-temperature, cell plates were loaded onto a FLIPR (Molecular Devices) to monitor cellular fluorescence (excitation=488 nm; emission=540 nm) before and after compound/peptide addition. Eight to twelve point dose responses were tested on NMUR-expressing cell lines using FLIPR with 1 μM peptide as the highest dose. The response after peptide addition was taken as the maximum fluorescence units minus the fluorescence immediately prior to stimulation for each well. EC50 values were calculated using GraphPad Prism (San Diego, Calif.) software.
(§5) In vitro responses of Neuromedin U receptor agonists (NMU1 to NMU25) in the FLIPR assay for human (Table 3), mouse (Table 4) and rat (Table 5) NMUR1 and NMUR2. EC50s are reported in nM values. Percent activity refers to the maximum response at 1 μM compared to the hNMU-25 response at the same concentration. NT=not tested.

[2] = target: T2, rat NMUR1-TTG (Rattus norvegicus, UniProt Q9JJI5); test: FLIPR calcium mobilization assay, rat NMUR1-TTG; design: expressed in transfected cells; host or cells: FLP-In CHO or HEK-293 FLP-In cells (pcDNA5)
T2 sequence (Q9JJI5 1-425): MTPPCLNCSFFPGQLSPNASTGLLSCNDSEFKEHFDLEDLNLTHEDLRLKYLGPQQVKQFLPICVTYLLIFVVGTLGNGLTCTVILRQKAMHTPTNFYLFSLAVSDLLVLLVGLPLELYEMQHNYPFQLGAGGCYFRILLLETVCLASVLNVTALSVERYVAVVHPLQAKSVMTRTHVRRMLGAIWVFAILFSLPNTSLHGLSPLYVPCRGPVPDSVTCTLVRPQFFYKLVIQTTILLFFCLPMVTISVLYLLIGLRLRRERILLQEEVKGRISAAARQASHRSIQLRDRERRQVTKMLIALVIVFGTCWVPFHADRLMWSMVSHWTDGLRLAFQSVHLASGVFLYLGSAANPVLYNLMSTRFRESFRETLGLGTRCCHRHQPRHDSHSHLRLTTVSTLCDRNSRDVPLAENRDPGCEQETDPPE
Description: as §1, §2, §3, §4, §5

[3] = target: T3, hNMUR1 (Homo sapiens, UniProt Q9HB89); test: FLIPR calcium mobilization assay, human NMUR1; design: expressed in transfected cells; host or cells: FLP-In CHO or HEK-293 FLP-In cells (pcDNA5); HEK-293/aeq17 lines (pIRES-puro) were also made
T3 sequence (Q9HB89 1-426): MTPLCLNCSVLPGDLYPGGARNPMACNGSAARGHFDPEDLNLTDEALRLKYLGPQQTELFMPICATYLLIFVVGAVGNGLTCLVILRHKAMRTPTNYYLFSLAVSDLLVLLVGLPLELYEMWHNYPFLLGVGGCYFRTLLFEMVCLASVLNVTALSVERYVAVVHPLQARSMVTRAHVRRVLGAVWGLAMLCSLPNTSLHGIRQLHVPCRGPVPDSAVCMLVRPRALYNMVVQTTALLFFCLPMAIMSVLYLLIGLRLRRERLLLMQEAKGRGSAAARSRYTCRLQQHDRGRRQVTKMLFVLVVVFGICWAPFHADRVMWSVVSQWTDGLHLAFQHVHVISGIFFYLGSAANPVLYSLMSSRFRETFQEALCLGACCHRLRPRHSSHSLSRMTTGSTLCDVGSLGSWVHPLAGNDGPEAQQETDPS
Description: as §1, §2, §3, §4, §5

[4] = maximum response at 1 μM compared to hNMU-25, mouse NMUR1-CTG
[5] = maximum response at 1 μM compared to hNMU-25, rat NMUR1-TTG
[6] = maximum response at 1 μM compared to hNMU-25 response at same concentration, human NMUR1

| Compound | EC50 ([1]; mouse NMUR1-CTG) [nM] | IC50 ([1]; functional data, mouse R1-CTG) [nM] | % Activity ([1]; functional, mouse R1-CTG, relative to native hNMU responses) [%] | % Activity [1, 4] [%] | % Activity ([2]; functional, rat R1-TTG, relative to native hNMU responses) [%] | % Activity [2, 5] [%] | % Activity ([3]; functional, human R1, relative to native hNMU responses) [%] | % Activity [3, 6] [%] |
| --- | --- | --- | --- | --- | --- | --- | --- | --- |
| CCN1C(=O)CC(SC[C@H](NC(C)=O)C(=O)N[C@@H](Cc2ccccc2)C(=O)N[C@@H](CCCNC(=N)N)C(=O)N[C@H](C(=O)N[C@@H](CC(=O)O)C(=O)N[C@@H](CCC(=O)O)C(=O)N[C@@H](CCC(=O)O)C(=O)N[C@@H](Cc2ccccc2)C(=O)N[C@@H](CCC(N)=O)C(=O)N[C@@H](CO)C(=O)N2CCC[C@H]2C(=O)N[C@@H](Cc2ccccc2)C(=O)N[C@@H](C)C(=O)N[C@@H](CO)C(=O)N[C@@H](CCC(N)=O)C(=O)N[C@@H](CO)C(=O)N[C@@H](CCCNC(=N)N)C(=O)NCC(=O)N[C@@H](Cc2ccc(O)cc2)C(=O)N[C@@H](Cc2ccccc2)C(=O)N[C@H](C)C(=O)N[C@@H](Cc2c[nH]c3ccccc23)C(=O)N[C@@H](CCCNC(=N)N)C(=O)N2CCC[C@H]2C(=O)N[C@@H](CCCNC(=N)N)C(=O)N[C@@H](CC(N)=O)C(N)=O)C(C)C)C1=O (stereo partly drawn) [NMU13] (Ac-C(Succinimide(1-Et,3-yl))FRVDEEFQSPFASQSRGYF[dA]WRPRN-NH2) | 141 | 14 | 88 | 73.6 | 94 | 94.6 | 91 | 100 |
| CCN1C(=O)CC(SC[C@H](NC(C)=O)C(=O)NCCCOCCOCCOCCCNC(=O)CCC(=O)N[C@@H](Cc2ccccc2)C(=O)N[C@@H](CC(C)C)C(=O)N[C@@H](Cc2ccccc2)C(=O)N[C@@H](CCCNC(=N)N)C(=O)N2CCC[C@H]2C(=O)N[C@@H](CCCNC(=N)N)C(=O)N[C@@H](CC(N)=O)C(N)=O)C1=O (stereo partly drawn) [NMU15, Ac-C1-Ttds-FLFRPRN-CONH2] ({X2-Suc}-FLFRPRN-NH2) | – | – | – | 100 | – | 107.5 | – | 91.5 |
| CCN1C(=O)CC(SC[C@H](NC(C)=O)C(=O)N[C@@H](C)C(=O)N[C@@H](CO)C(=O)N[C@@H](CCC(N)=O)C(=O)N[C@@H](CO)C(=O)N[C@@H](CCCNC(=N)N)C(=O)NCC(=O)N[C@@H](Cc2ccc(O)cc2)C(=O)N[C@@H](Cc2ccccc2)C(=O)N[C@@H](CC(C)C)C(=O)N[C@@H](Cc2ccccc2)C(=O)N[C@@H](CCCNC(=N)N)C(=O)N2CCC[C@H]2C(=O)N[C@@H](CCCNC(=N)N)C(=O)N[C@@H](CC(N)=O)C(N)=O)C1=O (stereo partly drawn) [NMU17] (Ac-C(Succinimide(1-Et,3-yl))ASQSRGYFLFRPRN-NH2) | 2.9 | – | – | 116.6 | – | 105.3 | – | 100 |
| CCN1C(=O)CC(SC[C@H](NC(C)=O)C(=O)N[C@@H](Cc2ccccc2)C(=O)N[C@@H](CCC(N)=O)C(=O)N[C@@H](CO)C(=O)N2CCC[C@H]2C(=O)N[C@@H](Cc2ccccc2)C(=O)N[C@@H](C)C(=O)N[C@@H](CO)C(=O)N[C@@H](CCC(N)=O)C(=O)N[C@@H](CO)C(=O)N[C@@H](CCCNC(=N)N)C(=O)NCC(=O)N[C@@H](Cc2ccc(O)cc2)C(=O)N[C@@H](Cc2ccccc2)C(=O)N[C@@H](CC(C)C)C(=O)N[C@@H](Cc2ccccc2)C(=O)N[C@@H](CCCNC(=N)N)C(=O)N2CCC[C@H]2C(=O)N[C@@H](CCCNC(=N)N)C(=O)N[C@@H](CC(N)=O)C(N)=O)C1=O (stereo partly drawn) [NMU19] (Ac-C(Succinimide(1-Et,3-yl))FQSPFASQSRGYFLFRPRN-NH2) | – | – | – | 110.8 | – | 100 | – | 95.9 |
| CCN1C(=O)CC(SC[C@H](NC(C)=O)C(=O)N[C@@H](CSC2CC(=O)N(CC)C2=O)C(=O)N[C@@H](Cc2ccccc2)C(=O)N[C@@H](CCCNC(=N)N)C(=O)N[C@H](C(=O)N[C@@H](CC(=O)O)C(=O)N[C@@H](CCC(=O)O)C(=O)N[C@@H](CCC(=O)O)C(=O)N[C@@H](Cc2ccccc2)C(=O)N[C@@H](CCC(N)=O)C(=O)N[C@@H](CO)C(=O)N2CCC[C@H]2C(=O)N[C@@H](Cc2ccccc2)C(=O)N[C@@H](C)C(=O)N[C@@H](CO)C(=O)N[C@@H](CCC(N)=O)C(=O)N[C@@H](CO)C(=O)N[C@@H](CCCNC(=N)N)C(=O)NCC(=O)N[C@@H](Cc2ccc(O)cc2)C(=O)N[C@@H](Cc2ccccc2)C(=O)N[C@@H](CC(C)C)C(=O)N[C@@H](Cc2ccccc2)C(=O)N[C@@H](CCCNC(=N)N)C(=O)N2CCC[C@H]2C(=O)N[C@@H](CCCNC(=N)N)C(=O)N[C@@H](CC(N)=O)C(N)=O)C(C)C)C1=O (stereo partly drawn) [NMU22] (Ac-C(Succinimide(1-Et,3-yl))C(Succinimide(1-Et,3-yl))FRVDEEFQSPFASQSRGYFLFRPRN-NH2) | – | – | – | 100 | – | 96.4 | – | 95.6 |
